Test results published in patent US20200172529A1, “Chemical Compound, Pharmaceutical Composition Thereof, and Use and Application Thereof” (Beijing Hanmi Pharm. Co., Ltd., priority 2017, published 2020).

Key:
JAK1 kinase = JAK1 kinase (Homo sapiens, UniProt P23458); test: Inhibition assay of JAK1 kinase activity (ADP-Glo Kinase Assay); format: biochemical
Excerpt: Inhibition assay of JAK1 kinase activity: the method in ADP-Glo™ Kinase Assay (Promega, V9102) was used to determine the inhibitory activity of the test compounds against JAK1 kinase.

TYK2 kinase = molecular target: T1, TYK2 kinase (Homo sapiens, UniProt P29597); test: Inhibition assay of TYK2 kinase activity (ADP-Glo Kinase Assay); format: biochemical
T1 construct: purchased Life Technologies PR8440C
Description: Determination of inhibition of TYK2 kinase activity by the examples compounds disclosed herein
Inhibition assay of TYK2 kinase activity: the method of ADP-Glo™ Kinase Assay (Promega, V9102) was used to determine the inhibitory activity of the test compounds against TYK2 kinase.
TYK2 kinase (purchased from Life Technologies, article number: PR8440C) was diluted to the 2-fold final concentration (0.8 ng/mL) using reaction buffer (40 mM Tris-HCl, pH 7.5; 20 mM MgCl2; 0.1 mg/mL BSA; 1 mM DTT), and added to a 384-well plate at 5 μL/well. The test drugs were subjected to a 10-fold gradient dilution, from 10 μM, to obtain 6 concentrations, and added to experimental wells of the 384-well plate at 2.5 μL/well. 5 μL of water and 2.5 μL of buffer were added to negative control wells. 5 μL of TYK2 and 2.5 μL of water were added to positive control wells. After incubating for 10 minutes at room temperature, the substrate ATP and polyE4Y1 (Sigma, P0275) were added at 2.5 μL/well, mixed well, and then reacted at room temperature for 60 minutes. After the reaction was completed, the kinase activity was detected according to the instruction of the kit. First, the ADP-Glo reaction reagent was added at 10 μL/well, mixed well, and reacted at room temperature for 40 minutes. The kinase detection reagent was then added at 20 μL/well, mixed well, and then reacted at room temperature for 30 minutes. The detection was then performed and the IC50s of test drugs were calculated.

JAK1 kinase, sequence (P23458 whole entry): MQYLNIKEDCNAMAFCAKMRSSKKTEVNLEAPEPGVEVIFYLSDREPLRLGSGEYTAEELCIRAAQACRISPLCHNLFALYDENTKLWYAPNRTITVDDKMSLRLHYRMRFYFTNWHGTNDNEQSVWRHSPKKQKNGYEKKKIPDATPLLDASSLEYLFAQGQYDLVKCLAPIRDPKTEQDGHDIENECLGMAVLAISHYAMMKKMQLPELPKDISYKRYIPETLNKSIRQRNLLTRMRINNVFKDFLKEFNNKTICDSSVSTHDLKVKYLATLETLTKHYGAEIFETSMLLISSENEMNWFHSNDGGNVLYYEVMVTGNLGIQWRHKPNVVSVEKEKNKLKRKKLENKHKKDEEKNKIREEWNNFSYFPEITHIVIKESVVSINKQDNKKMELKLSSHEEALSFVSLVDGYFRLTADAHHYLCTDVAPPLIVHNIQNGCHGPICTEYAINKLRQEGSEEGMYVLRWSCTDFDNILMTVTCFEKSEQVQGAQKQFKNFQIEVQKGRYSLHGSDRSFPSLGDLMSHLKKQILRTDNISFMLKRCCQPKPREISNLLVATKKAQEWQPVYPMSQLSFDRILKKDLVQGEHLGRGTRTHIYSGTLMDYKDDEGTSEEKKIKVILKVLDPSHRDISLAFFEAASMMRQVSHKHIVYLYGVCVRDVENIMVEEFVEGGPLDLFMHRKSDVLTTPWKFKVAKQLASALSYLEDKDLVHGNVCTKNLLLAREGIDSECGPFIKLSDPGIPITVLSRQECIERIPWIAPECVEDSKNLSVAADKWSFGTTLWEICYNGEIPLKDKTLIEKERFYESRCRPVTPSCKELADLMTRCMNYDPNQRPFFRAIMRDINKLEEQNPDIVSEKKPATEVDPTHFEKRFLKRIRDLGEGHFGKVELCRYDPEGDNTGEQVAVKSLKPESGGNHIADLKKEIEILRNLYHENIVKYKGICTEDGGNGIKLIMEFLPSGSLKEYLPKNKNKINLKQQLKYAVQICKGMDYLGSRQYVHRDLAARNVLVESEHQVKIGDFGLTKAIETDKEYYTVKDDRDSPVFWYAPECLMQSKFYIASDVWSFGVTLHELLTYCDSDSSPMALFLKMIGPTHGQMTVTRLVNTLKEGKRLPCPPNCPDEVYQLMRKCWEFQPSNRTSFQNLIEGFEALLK
T1 sequence (P29597 whole entry): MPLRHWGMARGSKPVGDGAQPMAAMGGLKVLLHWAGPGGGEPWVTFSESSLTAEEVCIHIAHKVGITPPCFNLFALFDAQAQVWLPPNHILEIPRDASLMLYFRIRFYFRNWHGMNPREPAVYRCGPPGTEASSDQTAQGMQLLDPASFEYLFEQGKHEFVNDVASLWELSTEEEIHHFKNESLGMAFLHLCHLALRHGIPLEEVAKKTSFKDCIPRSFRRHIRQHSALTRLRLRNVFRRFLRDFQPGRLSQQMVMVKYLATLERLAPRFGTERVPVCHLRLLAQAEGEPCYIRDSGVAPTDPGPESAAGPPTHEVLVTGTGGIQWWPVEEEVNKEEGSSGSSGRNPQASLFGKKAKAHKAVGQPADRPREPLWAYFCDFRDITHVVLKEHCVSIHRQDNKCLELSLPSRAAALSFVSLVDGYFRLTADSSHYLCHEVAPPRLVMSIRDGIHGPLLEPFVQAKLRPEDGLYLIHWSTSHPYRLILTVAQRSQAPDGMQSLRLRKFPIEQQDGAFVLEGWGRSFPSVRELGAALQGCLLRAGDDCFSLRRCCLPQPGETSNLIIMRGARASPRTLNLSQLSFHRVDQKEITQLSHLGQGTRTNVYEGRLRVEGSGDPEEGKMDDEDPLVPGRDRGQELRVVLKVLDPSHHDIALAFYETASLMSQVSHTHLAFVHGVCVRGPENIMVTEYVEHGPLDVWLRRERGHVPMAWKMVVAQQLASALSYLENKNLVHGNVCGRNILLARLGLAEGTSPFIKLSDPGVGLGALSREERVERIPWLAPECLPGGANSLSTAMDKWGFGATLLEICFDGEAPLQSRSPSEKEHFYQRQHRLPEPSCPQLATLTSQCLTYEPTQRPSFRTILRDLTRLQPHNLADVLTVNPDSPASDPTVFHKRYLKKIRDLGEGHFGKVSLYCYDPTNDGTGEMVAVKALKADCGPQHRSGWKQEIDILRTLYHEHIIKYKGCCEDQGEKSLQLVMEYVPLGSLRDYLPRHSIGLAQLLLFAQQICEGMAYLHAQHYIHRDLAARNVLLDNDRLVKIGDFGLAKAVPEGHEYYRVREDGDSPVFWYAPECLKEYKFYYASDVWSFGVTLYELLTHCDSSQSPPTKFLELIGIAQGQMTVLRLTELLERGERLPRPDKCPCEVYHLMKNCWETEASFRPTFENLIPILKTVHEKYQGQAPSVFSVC

Structure (SMILES) | IC50 (JAK1 kinase) [nM] | IC50 (TYK2 kinase) [nM]
CCNc1nc(Nc2ccc3c(c2)NC[C@H](O)CO3)ncc1C(N)=O [Example 40, 4-(ethylamino)-2-(((S)-2,3,4,5-tetrahydro-3-hydroxybenzo[b][1,4]oxazepin-7-yl)amino)pyrimidin-5-carboxamide] | 10 to 100 | < 10
NC(=O)c1cnc(Nc2ccc3c(c2)NC[C@H](O)CO3)nc1Nc1cccc2[nH]ccc12 [Example 29, 4-((1H-indol-4-yl)amino)-2-(((S)-2,3,4,5-tetrahydro-3-hydroxybenzo[b][1,4]oxazepin-7-yl)amino)pyrimidin-5-carboxamide] | < 10 | < 10
CC(Nc1nc(Nc2ccc3c(c2)NC[C@H](O)CO3)ncc1C(N)=O)C(F)(F)F (stereo partly drawn) [Example 32, 4-(1,1,1-trifluoropropan-2-ylamino)-2-(((S)-2,3,4,5-tetrahydro-3-hydroxybenzo[b][1,4]oxazepin-7-yl)amino)pyrimidin-5-carboxamide] | 10 to 100 | 10 to 100
Cc1ccc(Nc2nc(Nc3ccc4c(c3)NCC(O)CO4)ncc2C(N)=O)nc1 (stereo not drawn) [Example 19, 4-((5-methylpyridin-2-yl)amino)-2-((3-hydroxy-2,3,4,5-tetrahydro-benzo[b][1,4]oxazepin-7-yl)amino)pyrimidin-5-carboxamide] |  | 10 to 100
NC(=O)c1cnc(Nc2ccc3c(c2)NC[C@H](O)CO3)nc1NCCCN1CCOCC1 [Example 62, 4-((3-morpholinopropyl)amino)-2-(((S)-2,3,4,5-tetrahydro-3-hydroxybenzo[b][1,4]oxazepin-7-yl)amino)pyrimidin-5-carboxamide] | 10 to 100 | 10 to 100
CC(Nc1nc(Nc2ccc3c(c2)NCC(O)CO3)ncc1C(N)=O)c1ccccc1 (stereo not drawn) [Example 12, 4-((1-phenylethyl)amino)-2-((3-hydroxy-2,3,4,5-tetrahydro-benzo[b][1,4]oxazepin-7-yl)amino)pyrimidin-5-carboxamide] |  | 10 to 100
COCCCNc1nc(Nc2ccc3c(c2)NC[C@H](O)CO3)ncc1C(N)=O [Example 52, 4-((3-methoxypropyl)amino)-2-(((S)-2,3,4,5-tetrahydro-3-hydroxybenzo[b][1,4]oxazepin-7-yl)amino)pyrimidin-5-carboxamide] | 10 to 100 | < 10
NC(=O)c1cnc(Nc2ccc3c(c2)NC[C@H](O)CO3)nc1NC12CC3CC(CC(O)(C3)C1)C2 [Example 43, 4-((1-hydroxyadamantan-3-yl)amino)-2-(((S)-2,3,4,5-tetrahydro-3-hydroxybenzo[b][1,4]oxazepin-7-yl)amino)pyrimidin-5-carboxamide] | < 10 | < 10
NC(=O)c1cnc(Nc2ccc3c(c2)NC[C@H](O)CO3)nc1Nc1cccc(-c2nc[nH]n2)c1 [Example 35] | 10 to 100 | < 10
NC(=O)c1cnc(Nc2ccc3c(c2)NCC(O)CO3)nc1NCc1ccncc1 (stereo not drawn) [Example 15, 4-((pyridin-4-ylmethyl)amino)-2-((3-hydroxy-2,3,4,5-tetrahydro-benzo[b][1,4]oxazepin-7-yl)amino)pyrimidin-5-carboxamide] |  | 10 to 100
CCS(=O)(=O)NCCNc1nc(Nc2ccc3c(c2)NC[C@H](O)CO3)ncc1C(N)=O [Example 71, 4-((2-(ethylsulfonamido)ethyl)amino)-2-(((S)-2,3,4,5-tetrahydro-3-hydroxybenzo[b][1,4]oxazepin-7-yl)amino)pyrimidin-5-carboxamide] |  | < 10
Cn1ccc2c(Nc3nc(Nc4ccc5c(c4)NCC(O)CO5)ncc3C(N)=O)cccc21 (stereo not drawn) [Example 20, 4-((1-methyl-1H-indol-4-yl)amino)-2-((3-hydroxy-2,3,4,5-tetrahydro-benzo[b][1,4]oxazepin-7-yl)amino)pyrimidin-5-carboxamide] | 10 to 100 | < 10
NC(=O)c1cnc(Nc2ccc3c(c2)NCC(O)CO3)nc1NC1CCCC1 (stereo not drawn) [Example 3, 4-(cyclopentylamino)-2-((3-hydroxy-2,3,4,5-tetrahydro-benzo[b][1,4]oxazepin-7-yl)amino)pyrimidin-5-carboxamide] | < 10 | < 10
NC(=O)c1cnc(Nc2ccc3c(c2)NCC(O)CO3)nc1NCc1ccccn1 (stereo not drawn) [Example 13, 4-((pyridin-2-ylmethyl)amino)-2-((3-hydroxy-2,3,4,5-tetrahydro-benzo[b][1,4]oxazepin-7-yl)amino)pyrimidin-5-carboxamide] |  | < 10
NC(=O)c1cnc(Nc2ccc3c(c2)NCC(O)CO3)nc1NCc1ccc(F)cc1 (stereo not drawn) [Example 10, 4-((4-fluorobenzyl)amino)-2-((3-hydroxy-2,3,4,5-tetrahydro-benzo[b][1,4]oxazepin-7-yl)amino)pyrimidin-5-carboxamide] |  | 10 to 100
CC(C)(CO)Nc1nc(Nc2ccc3c(c2)NC[C@H](O)CO3)ncc1C(N)=O [Example 28, 4-((1-hydroxy-2-methylpropan-2-yl)amino)-2-(((S)-2,3,4,5-tetrahydro-3-hydroxybenzo[b][1,4]oxazepin-7-yl)amino)pyrimidin-5-carboxamide] |  | < 10
NC(=O)c1cnc(Nc2ccc3c(c2)NC[C@H](O)CO3)nc1NC1CC(O)C1 (stereo partly drawn) [Example 36, 4-((3-hydroxycyclobutyl)amino)-2-(((S)-2,3,4,5-tetrahydro-3-hydroxybenzo[b][1,4]oxazepin-7-yl)amino)pyrimidin-5-carboxamide] | 10 to 100 | < 10
NC(=O)c1cnc(Nc2ccc3c(c2)NCC(O)CO3)nc1Nc1cccc(F)c1 (stereo not drawn) [Example 18, 4-((3-fluorophenyl)amino)-2-((3-hydroxy-2,3,4,5-tetrahydro-benzo[b][1,4]oxazepin-7-yl)amino)pyrimidin-5-carboxamide] |  | 10 to 100
CCCCO[C@@H]1CNc2cc(Nc3ncc(C(N)=O)c(NC4CC4)n3)ccc2OC1 [Example 85, 4-(cyclopropylamino)-2-(((R)-2,3,4,5-tetrahydro-3-butoxybenzo[b][1,4]oxazepin-7-yl)amino)pyrimidin-5-carboxamide] |  | < 10
NC(=O)c1cnc(Nc2ccc3c(c2)NCC(O)CO3)nc1NC12CC3CC(CC(C3)C1)C2 (stereo not drawn) [Example 5, 4-((adamantanyl-1-yl)amino)-2-((3-hydroxy-2,3,4,5-tetrahydro-benzo[b][1,4]oxazepin-7-yl)amino)pyrimidin-5-carboxamide] | 10 to 100 | 10 to 100
NC(=O)c1cnc(Nc2ccc3c(c2)NCC(O)CO3)nc1Nc1cccc2sccc12 (stereo not drawn) [Example 21, 4-(benzo[b]thiophen-4-ylamino)-2-((3-hydroxy-2,3,4,5-tetrahydro-benzo[b][1,4]oxazepin-7-yl)amino)pyrimidin-5-carboxamide] |  | < 10
CCO[C@@H]1CNc2cc(Nc3ncc(C(N)=O)c(NC4CC4)n3)ccc2OC1 [Example 83, 4-(cyclopropylamino)-2-(((R)-2,3,4,5-tetrahydro-3-ethoxybenzo[b][1,4]oxazepin-7-yl)amino)pyrimidin-5-carboxamide] |  | < 10
NC(=O)c1cnc(Nc2ccc3c(c2)NC[C@H](O)CO3)nc1NC1CNC1 [Example 58, 4-(azetidin-3-ylamino)-2-(((S)-2,3,4,5-tetrahydro-3-hydroxybenzo[b][1,4]oxazepin-7-yl)amino)pyrimidin-5-carboxamide] | 10 to 100 | 10 to 100
N#CCC(=O)N1CCC(Nc2nc(Nc3ccc4c(c3)NC[C@H](O)CO4)ncc2C(N)=O)C1 (stereo partly drawn) [Example 42, 4-((1-(2-cyanoacetyl)pyrrolidin-3-yl)amino)-2-(((S)-2,3,4,5-tetrahydro-3-hydroxybenzo[b][1,4]oxazepin-7-yl)amino)pyrimidin-5-carboxamide] | 10 to 100 | < 10
CC(O)CNc1nc(Nc2ccc3c(c2)NCC(O)CO3)ncc1C(N)=O (stereo not drawn) [Example 23, 4-((2-hydroxypropyl)amino)-2-((3-hydroxy-2,3,4,5-tetrahydro-benzo[b][1,4]oxazepin-7-yl)amino)pyrimidin-5-carboxamide] |  | < 10
COc1ccc(CNc2nc(Nc3ccc4c(c3)NCC(O)CO4)ncc2C(N)=O)cc1 (stereo not drawn) [Example 11, 4-((4-methoxybenzyl)amino)-2-((3-hydroxy-2,3,4,5-tetrahydro-benzo[b][1,4]oxazepin-7-yl)amino)pyrimidin-5-carboxamide] |  | 10 to 100
NC(=O)c1cnc(Nc2ccc3c(c2)NCC(O)CO3)nc1Nc1ccccc1 (stereo not drawn) [Example 16, 4-(phenylamino)-2-((3-hydroxy-2,3,4,5-tetrahydro-benzo[b][1,4]oxazepin-7-yl)amino)pyrimidin-5-carboxamide] |  | 10 to 100
CCCCCO[C@H]1CNc2cc(Nc3ncc(C(N)=O)c(NC4CC4)n3)ccc2OC1 [Example 88, 4-(cyclopropylamino)-2-(((S)-2,3,4,5-tetrahydro-3-pentoxybenzo[b][1,4]oxazepin-7-yl)amino)pyrimidin-5-carboxamide] |  | 10 to 100
NC(=O)c1cnc(Nc2ccc3c(c2)NCC(O)CO3)nc1NC1CCCc2ccccc21 (stereo not drawn) [Example 22, 4-((1,2,3,4-tetrahydronaphthalen-1-yl)amino)-2-((3-hydroxy-2,3,4,5-tetrahydro-benzo[b][1,4]oxazepin-7-yl)amino)pyrimidin-5-carboxamide] |  | 10 to 100
